From patent publication US20090304692A1, “TRIAZINE COMPOUNDS AS PI3 KINASE AND MTOR INHIBITORS” (Wyeth, priority 2008, published 2009)
Where “and” joins values, the source holds several entries; their conditions need not be identical. Equal entries are not always repeated. Where two headings read alike, the source gives them in different places.

Columns and labels:
Human mTOR (FLAG-TOR) = Human mTOR (FLAG-TOR) (Homo sapiens, UniProt P42345); test: mTOR kinase assay (DELFIA format, purified enzyme); format: biochemical
Sequence of Human mTOR (FLAG-TOR) (P42345 1360-2549 limits assumed): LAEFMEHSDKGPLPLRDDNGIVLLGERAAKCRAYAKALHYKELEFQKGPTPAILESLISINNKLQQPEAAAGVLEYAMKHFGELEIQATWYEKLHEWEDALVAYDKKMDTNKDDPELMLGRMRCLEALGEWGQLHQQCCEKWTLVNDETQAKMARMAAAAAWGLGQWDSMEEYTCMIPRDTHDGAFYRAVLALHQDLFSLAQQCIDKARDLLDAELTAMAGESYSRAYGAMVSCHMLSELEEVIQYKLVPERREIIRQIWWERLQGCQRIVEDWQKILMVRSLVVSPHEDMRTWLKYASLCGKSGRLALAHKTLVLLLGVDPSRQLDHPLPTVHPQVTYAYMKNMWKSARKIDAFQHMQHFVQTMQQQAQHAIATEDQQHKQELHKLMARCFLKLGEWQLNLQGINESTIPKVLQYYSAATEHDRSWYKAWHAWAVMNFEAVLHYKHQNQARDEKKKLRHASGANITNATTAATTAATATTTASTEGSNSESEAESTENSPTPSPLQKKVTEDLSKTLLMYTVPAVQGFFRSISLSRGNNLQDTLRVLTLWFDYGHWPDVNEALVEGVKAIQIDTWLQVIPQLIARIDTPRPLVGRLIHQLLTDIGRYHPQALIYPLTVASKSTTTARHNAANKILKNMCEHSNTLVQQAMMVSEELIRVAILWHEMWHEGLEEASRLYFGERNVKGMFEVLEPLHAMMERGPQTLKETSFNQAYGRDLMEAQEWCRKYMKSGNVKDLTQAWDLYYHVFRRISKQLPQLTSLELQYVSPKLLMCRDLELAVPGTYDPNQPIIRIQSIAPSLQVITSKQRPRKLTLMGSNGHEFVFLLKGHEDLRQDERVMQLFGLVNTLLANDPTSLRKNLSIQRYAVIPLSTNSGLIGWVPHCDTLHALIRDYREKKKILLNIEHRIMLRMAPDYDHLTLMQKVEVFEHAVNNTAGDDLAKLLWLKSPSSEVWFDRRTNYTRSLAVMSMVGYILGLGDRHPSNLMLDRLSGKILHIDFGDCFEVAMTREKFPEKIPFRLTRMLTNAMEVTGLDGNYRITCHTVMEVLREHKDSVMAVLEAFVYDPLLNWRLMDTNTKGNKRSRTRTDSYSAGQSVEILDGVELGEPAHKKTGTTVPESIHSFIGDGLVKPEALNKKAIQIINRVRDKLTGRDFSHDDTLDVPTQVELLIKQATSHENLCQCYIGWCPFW

[1] = tested on: human breast MDA-MB-361 tumor cell line; test: In vitro cell culture growth assay (MTS), MDA-MB-361; format: cell-based; settings: Homo sapiens, MDA-MB-361, 72 h, MTS cell growth assay, three days after drug treatment, read-out: IC50 MDA-MB-361
[2] = tested on: human prostate PC3-mm2 tumor cell line; test: In vitro cell culture growth assay (MTS), PC3-mm2; format: cell-based; settings: Homo sapiens, PC3MM2, 72 h, MTS cell growth assay, three days after drug treatment, read-out: IC50 PC3-mm2
PI3K-α = PI3K-α (Homo sapiens, UniProt P42336); test: PI3K-alpha fluorescence polarization assay; settings: read-out: IC50 PI3Kα
Sequence of PI3K-α (P42336 whole entry, species assumed): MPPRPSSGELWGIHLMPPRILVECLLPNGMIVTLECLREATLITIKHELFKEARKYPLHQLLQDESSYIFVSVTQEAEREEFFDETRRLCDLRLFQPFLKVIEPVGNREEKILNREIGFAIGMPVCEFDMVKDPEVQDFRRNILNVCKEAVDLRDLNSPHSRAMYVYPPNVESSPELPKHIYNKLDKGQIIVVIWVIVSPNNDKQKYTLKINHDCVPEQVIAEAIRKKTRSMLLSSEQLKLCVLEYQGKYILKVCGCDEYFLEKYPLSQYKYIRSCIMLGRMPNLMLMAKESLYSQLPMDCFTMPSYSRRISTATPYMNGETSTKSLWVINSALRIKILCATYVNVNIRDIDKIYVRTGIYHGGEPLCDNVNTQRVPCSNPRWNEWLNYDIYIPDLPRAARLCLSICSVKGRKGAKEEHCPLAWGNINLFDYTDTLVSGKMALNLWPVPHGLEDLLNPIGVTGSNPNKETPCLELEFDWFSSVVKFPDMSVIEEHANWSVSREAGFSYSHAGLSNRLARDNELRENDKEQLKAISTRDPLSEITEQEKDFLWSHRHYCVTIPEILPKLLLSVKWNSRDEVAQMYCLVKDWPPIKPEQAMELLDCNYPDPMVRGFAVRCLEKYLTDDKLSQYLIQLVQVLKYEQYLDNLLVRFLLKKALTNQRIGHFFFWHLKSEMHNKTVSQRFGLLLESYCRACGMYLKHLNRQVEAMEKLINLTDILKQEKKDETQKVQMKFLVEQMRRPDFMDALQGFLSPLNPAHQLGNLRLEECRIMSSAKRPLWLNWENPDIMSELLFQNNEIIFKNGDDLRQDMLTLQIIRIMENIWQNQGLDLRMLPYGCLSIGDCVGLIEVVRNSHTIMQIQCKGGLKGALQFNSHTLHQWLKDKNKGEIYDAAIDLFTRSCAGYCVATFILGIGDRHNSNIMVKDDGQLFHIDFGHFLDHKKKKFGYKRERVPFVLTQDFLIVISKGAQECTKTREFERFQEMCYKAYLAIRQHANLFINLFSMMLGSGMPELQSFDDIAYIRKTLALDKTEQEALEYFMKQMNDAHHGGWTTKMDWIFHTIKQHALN
Sequence of PI3K-α (P27986 whole entry partner, species assumed): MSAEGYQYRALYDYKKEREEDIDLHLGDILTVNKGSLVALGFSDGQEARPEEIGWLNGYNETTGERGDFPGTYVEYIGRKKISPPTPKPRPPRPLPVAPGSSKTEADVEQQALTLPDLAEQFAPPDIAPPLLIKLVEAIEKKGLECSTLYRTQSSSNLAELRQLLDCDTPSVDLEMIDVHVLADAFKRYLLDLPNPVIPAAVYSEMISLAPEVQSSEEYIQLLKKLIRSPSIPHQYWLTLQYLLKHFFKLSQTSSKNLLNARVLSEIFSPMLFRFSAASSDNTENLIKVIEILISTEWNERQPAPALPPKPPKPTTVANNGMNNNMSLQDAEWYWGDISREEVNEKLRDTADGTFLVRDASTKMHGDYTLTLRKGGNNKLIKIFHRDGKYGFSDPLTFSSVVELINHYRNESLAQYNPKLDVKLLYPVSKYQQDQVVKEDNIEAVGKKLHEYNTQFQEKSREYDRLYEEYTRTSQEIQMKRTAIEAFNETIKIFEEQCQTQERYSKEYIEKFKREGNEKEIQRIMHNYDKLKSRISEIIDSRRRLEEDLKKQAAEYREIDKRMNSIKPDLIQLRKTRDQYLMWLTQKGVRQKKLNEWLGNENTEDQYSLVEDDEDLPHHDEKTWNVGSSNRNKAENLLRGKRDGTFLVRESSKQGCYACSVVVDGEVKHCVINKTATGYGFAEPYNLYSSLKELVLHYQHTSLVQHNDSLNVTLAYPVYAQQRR

PI3K-γ = PI3K-γ (Homo sapiens, UniProt P48736); test: PI3K-gamma fluorescence polarization assay; settings: read-out: IC50 PI3Kγ
Sequence of PI3K-γ (P48736 whole entry, species assumed): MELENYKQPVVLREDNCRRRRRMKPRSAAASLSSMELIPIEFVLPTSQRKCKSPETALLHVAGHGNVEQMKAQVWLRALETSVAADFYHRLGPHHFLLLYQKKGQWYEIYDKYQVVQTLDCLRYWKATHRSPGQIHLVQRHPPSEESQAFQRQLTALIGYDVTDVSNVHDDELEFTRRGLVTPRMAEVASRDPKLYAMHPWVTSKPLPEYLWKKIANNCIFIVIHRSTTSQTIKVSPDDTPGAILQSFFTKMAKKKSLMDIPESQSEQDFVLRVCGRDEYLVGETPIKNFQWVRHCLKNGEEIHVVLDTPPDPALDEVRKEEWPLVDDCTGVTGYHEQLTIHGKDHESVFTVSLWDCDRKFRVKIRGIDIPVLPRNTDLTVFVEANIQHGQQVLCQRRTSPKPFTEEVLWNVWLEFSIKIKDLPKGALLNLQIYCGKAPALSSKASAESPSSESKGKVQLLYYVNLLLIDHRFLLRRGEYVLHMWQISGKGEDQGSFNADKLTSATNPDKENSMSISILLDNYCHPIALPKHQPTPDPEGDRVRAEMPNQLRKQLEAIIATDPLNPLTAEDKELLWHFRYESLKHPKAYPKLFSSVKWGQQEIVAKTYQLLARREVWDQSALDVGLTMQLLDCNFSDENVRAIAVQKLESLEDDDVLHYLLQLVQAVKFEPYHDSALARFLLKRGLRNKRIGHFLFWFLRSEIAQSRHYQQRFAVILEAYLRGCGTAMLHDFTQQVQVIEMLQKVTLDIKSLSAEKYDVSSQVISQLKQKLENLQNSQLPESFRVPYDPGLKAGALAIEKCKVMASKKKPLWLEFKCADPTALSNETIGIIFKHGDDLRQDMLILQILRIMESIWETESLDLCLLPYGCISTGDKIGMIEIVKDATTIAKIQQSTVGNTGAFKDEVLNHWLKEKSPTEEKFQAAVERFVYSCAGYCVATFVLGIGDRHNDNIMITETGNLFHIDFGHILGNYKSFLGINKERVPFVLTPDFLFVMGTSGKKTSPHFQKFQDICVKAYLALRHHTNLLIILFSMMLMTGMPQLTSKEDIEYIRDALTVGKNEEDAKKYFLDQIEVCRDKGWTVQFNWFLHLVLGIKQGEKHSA

Row | SMILES | IC50 (Human mTOR (FLAG-TOR); read-out: IC50 mTOR) | IC50 [1] | IC50 [2] | IC50 (PI3K-α) | IC50 (PI3K-γ) | further results
1 | O=C(Nc1ccccc1)Nc1ccc(-c2nc(N3CCOCC3)nc(N3CCOCC3)n2)cc1 [Example 3, 1-[4-(4,6-dimorpholin-4-yl-1,3,5-triazin-2-yl)phenyl]-3-phenylurea] | 3.85 nM | 45 nM | 43 nM | 3 nM | 27 nM | –
2 | COc1ccc(NC(=O)Nc2ccc(-c3nc(N4CCOCC4)nc(N4CCOCC4)n3)cc2)cc1 [Example 9, 1-[4-(4,6-dimorpholin-4-yl-1,3,5-triazin-2-yl)phenyl]-3-(4-methoxyphenyl)urea] | 4 nM | 102 nM | 161 nM | 10 nM | 65 nM | –
3 | CC(C)(C)OC(=O)N1CC(Nc2nc(-c3ccc(NC(=O)Nc4ccc(F)cc4)cc3)nc(N3CCOCC3)n2)C1 [Example 13, tert-butyl 3-{[4-(4-{[(4-fluorophenyl)carbamoyl]-amino}phenyl)-6-morpholin-4-yl-1,3,5-triazin-2-yl]amino}azetidine-1-carboxylate] | 11.5 nM | 603 nM | 845 nM | 51 nM | 879 nM | –
4 | Cc1ccc(NC(=O)Nc2ccc(-c3nc(NC4CNC4)nc(N4CCOCC4)n3)cc2)cc1 [Example 20, 1-{4-[4-(azetidin-3-ylamino)-6-morpholin-4-yl-1,3,5-triazin-2-yl]phenyl}-3-(4-methylphenyl)urea] | 30.5 nM | > 10000 nM | > 10000 nM | 41 nM | 258 nM | –
5 | O=C(Nc1ccncc1)Nc1ccc(-c2nc(N3CCOCC3)nc(N3C4CCC3COC4)n2)cc1 [Example 34, 1-{4-[4-morpholin-4-yl-6-(3-oxa-8-azabicyclo[3.2.1]oct-8-yl)-1,3,5-triazin-2-yl]phenyl}-3-pyridin-4-ylurea] | 0.49 nM and 0.48 nM | 28 nM | 41 nM | 9 nM | 95 nM | IC50 ([2]; PC3-mm2 cells): 41 nM; IC50 (PI3K-α; listed as 669): 8 nM; IC50 (PI3K-γ; listed as 669): 89 nM
6 | NC(=O)c1ccc(NC(=O)Nc2ccc(-c3nc(N4CCOCC4)nc(N4C5CCC4COC5)n3)cc2)cc1 [Example 35, 4-[({4-[4-morpholin-4-yl-6-(3-oxa-8-azabicyclo[3.2.1]oct-8-yl)-1,3,5-triazin-2-yl]phenyl}carbamoyl)amino]benzamide] | 0.21 nM and 0.212 nM | 22.5 nM | 27.5 nM | 6 nM | 54 nM | IC50 ([2]; PC3-mm2 cells): 27.5 nM; IC50 (PI3K-α; listed as 670): 5 nM; IC50 (PI3K-γ; listed as 670): 53 nM
7 | O=C(Nc1ccc(-c2nc(N3CCOCC3)nc(N3C4CCC3COC4)n2)cc1)Nc1cccnc1 [Example 36, 1-{4-[4-morpholin-4-yl-6-(3-oxa-8-azabicyclo[3.2.1]oct-8-yl)-1,3,5-triazin-2-yl]phenyl}-3-pyridin-3-ylurea] | 0.51 nM and 0.505 nM | 73 nM | 98 nM | 17 nM | 150 nM | IC50 ([1]; MDA-MB-361 cells): 73 nM; IC50 ([2]; PC3-mm2 cells): 98 nM; IC50 (PI3K-α; listed as 671): 17.5 nM; IC50 (PI3K-γ; listed as 671): 150 nM
8 | O=C(Nc1ccc(F)cc1)Nc1ccc(-c2nc(N3CCOCC3)nc(N3C4CCC3COC4)n2)cc1 [Example 37, 1-(4-fluorophenyl)-3-{4-[4-morpholin-4-yl-6-(3-oxa-8-azabicyclo[3.2.1]oct-8-yl)-1,3,5-triazin-2-yl]phenyl}urea] | – | 98 nM | 176 nM | 39 nM | 155 nM | IC50 (Human mTOR (FLAG-TOR); IC50 mTOR): 1.95 nM; IC50 ([1]; MDA-MB-361 cells): 98 nM; IC50 ([2]; PC3-mm2 cells): 176 nM; IC50 (PI3K-α; listed as 672): 39.5 nM; IC50 (PI3K-γ; listed as 672): 154 nM
9 | O=C(Nc1ccc(CO)cc1)Nc1ccc(-c2nc(N3CCOCC3)nc(N3C4CCC3COC4)n2)cc1 [Example 38, 1-[4-(hydroxymethyl)phenyl]-3-{4-[4-morpholin-4-yl-6-(3-oxa-8-azabicyclo[3.2.1]oct-8-yl)-1,3,5-triazin-2-yl]phenyl}urea] | 0.28 nM and 0.43 nM | 15 nM | 28 nM | 7 nM | 91 nM | IC50 ([2]; PC3-mm2 cells): 28 nM; IC50 (PI3K-γ; listed as 673): 98.7 nM
10 | O=C(Nc1ccc(CCO)cc1)Nc1ccc(-c2nc(N3CCOCC3)nc(N3C4CCC3COC4)n2)cc1 [Example 39, 1-[4-(2-hydroxyethyl)phenyl]-3-{4-[4-morpholin-4-yl-6-(3-oxa-8-azabicyclo[3.2.1]oct-8-yl)-1,3,5-triazin-2-yl]phenyl}urea] | 0.32 nM and 0.325 nM | 22 nM | 30 nM | 14 nM | 75 nM | IC50 ([2]; PC3-mm2 cells): 30 nM; IC50 (PI3K-γ; listed as 674): 74.5 nM

Further lines, with some results ahead:

Row | IC50 (Human mTOR (FLAG-TOR); read-out: IC50 mTOR) | IC50 [1] | IC50 [2] | IC50 (PI3K-α) | IC50 (PI3K-γ) | SMILES | further results
11 | 6.3 nM | 45 nM | 43 nM | 17 nM | 438 nM | Cc1ccc(NC(=O)Nc2ccc(-c3nc(N4CCOCC4)nc(N4CCOCC4)n3)cc2)cc1 [Example 5, 1-[4-(4,6-dimorpholin-4-yl-1,3,5-triazin-2-yl)phenyl]-3-(4-methylphenyl)urea] | –
12 | 6 nM | 45 nM | 43 nM | 6 nM | 53 nM | O=C(Nc1ccc(F)cc1)Nc1ccc(-c2nc(N3CCOCC3)nc(N3CCOCC3)n2)cc1 [Example 6, 1-[4-(4,6-dimorpholin-4-yl-1,3,5-triazin-2-yl)phenyl]-3-(4-fluorophenyl)urea] | –
13 | 8.45 nM | 376 nM | 590 nM | 25 nM | 154 nM | CC(C)(C)OC(=O)N1CC(Nc2nc(-c3ccc(NC(=O)Nc4ccccc4)cc3)nc(N3CCOCC3)n2)C1 [Example 14, tert-butyl 3-[(4-morpholin-4-yl-6-{4-[(phenylcarbamoyl)amino]phenyl}-1,3,5-triazin-2-yl)amino]azetidine-1-carboxylate] | –
14 | 2.5 nM | 255 nM | 328 nM | 23 nM | 177 nM | CC(C)(C)OC(=O)N1CC(Nc2nc(-c3ccc(NC(=O)Nc4cccnc4)cc3)nc(N3CCOCC3)n2)C1 [Example 15, tert-butyl 3-[(4-morpholin-4-yl-6-{4-[(pyridine-3-ylcarbamoyl)amino]phenyl}-1,3,5-triazin-2-yl)amino]azetidine-1-carboxylate] | –
15 | 14 nM | 501 nM | 994 nM | 8 nM | 90 nM | O=C(Nc1ccccc1)Nc1ccc(-c2nc(NC3CNC3)nc(N3CCOCC3)n2)cc1 [Example 17, 1-{4-[4-(azetidin-3-ylamino)-6-morpholin-4-yl-1,3,5-triazin-2-yl]phenyl}-3-phenylurea] | –
16 | 36 nM | 2660 nM | 7100 nM | 9 nM | 71 nM | O=C(Nc1ccc(-c2nc(NC3CNC3)nc(N3CCOCC3)n2)cc1)Nc1cccnc1 [Example 18, 1-{4-[4-(azetidin-3-ylamino)-6-morpholin-4-yl-1,3,5-triazin-2-yl]phenyl}-3-pyridin-3-ylurea] | –
17 | 39 nM | 1030 nM | 1600 nM | 23 nM | 206 nM | O=C(Nc1ccc(F)cc1)Nc1ccc(-c2nc(NC3CNC3)nc(N3CCOCC3)n2)cc1 [Example 19, 1-{4-[4-(azetidin-3-ylamino)-6-morpholin-4-yl-1,3,5-triazin-2-yl]phenyl}-3-(4-fluorophenyl)urea] | –
18 | 1.75 nM | 129 nM | 246 nM | 22 nM | 92 nM | CC(C)(C)OC(=O)N1CC(Nc2nc(-c3ccc(NC(=O)Nc4ccncc4)cc3)nc(N3CCOCC3)n2)C1 [Example 21, tert-butyl 3-[(4-morpholin-4-yl-6-{4-[(pyridine-4-ylcarbamoyl)amino]phenyl}-1,3,5-triazin-2-yl)amino]azetidine-1-carboxylate] | –
19 | 4.75 nM | 1420 nM | 2440 nM | 12 nM | 142 nM | O=C(Nc1ccncc1)Nc1ccc(-c2nc(NC3CNC3)nc(N3CCOCC3)n2)cc1 [Example 22, 1-{4-[4-(azetidin-3-ylamino)-6-morpholin-4-yl-1,3,5-triazin-2-yl]phenyl}-3-pyridin-4-ylurea] | –
20 | 2.05 nM | 104 nM | 147 nM | 18 nM | 51 nM | O=C(Nc1ccccc1)Nc1ccc(-c2nc(N3CCOCC3)nc(N3CC4CCC(C3)O4)n2)cc1 [Example 23, 1-{4-[4-morpholin-4-yl-6-(8-oxa-3-azabicyclo[3.2.1]oct-3-yl)-1,3,5-triazin-2-yl]phenyl}-3-phenylurea] | –
21 | 2.7 nM | 122 nM | 142 nM | 22 nM | 99 nM | O=C(Nc1ccc(F)cc1)Nc1ccc(-c2nc(N3CCOCC3)nc(N3CC4CCC(C3)O4)n2)cc1 [Example 24, 1-(4-fluorophenyl)-3-{4-[4-morpholin-4-yl-6-(8-oxa-3-azabicyclo[3.2.1]oct-3-yl)-1,3,5-triazin-2-yl]phenyl}urea] | –
22 | 4.05 nM | 264 nM | 258 nM | 58 nM | 105 nM | Cc1ccc(NC(=O)Nc2ccc(-c3nc(N4CCOCC4)nc(N4CC5CCC(C4)O5)n3)cc2)cc1 [Example 25, 1-(4-methylphenyl)-3-{4-[4-morpholin-4-yl-6-(8-oxa-3-azabicyclo[3.2.1]oct-3-yl)-1,3,5-triazin-2-yl]phenyl}urea] | –
